Data as given in PMC5241706, “Biochemical and Structural Characterization of Selective Allosteric Inhibitors of the Plasmodium falciparum Drug Target, Prolyl-tRNA-synthetase” (ACS Infectious Diseases, 2016).
Several values for one entry are separate records, joined by “and”; a condition that tells them apart may be missing. Identical values can stand only once.

Columns and labels:
PfProRS [1] = biological target: T1, PfProRS (Plasmodium falciparum, UniProt Q8I5R7); test: luciferase ATP depletion assay, HTS format; type: biochemical
T1 construct: B2, AA7–746 (minus 6 amino acids, or 99% of the ORF); made in house; host or cells: E. coli BL21(DE3)R3 Rosetta Oxford

HsProRS = biological target: T2, HsProRS (Homo sapiens, UniProt P07814); test: luciferase ATP depletion assay, counter-screen; type: biochemical
T2 construct: made in house
T2 sequence (P07814 1007-1512 limits assumed): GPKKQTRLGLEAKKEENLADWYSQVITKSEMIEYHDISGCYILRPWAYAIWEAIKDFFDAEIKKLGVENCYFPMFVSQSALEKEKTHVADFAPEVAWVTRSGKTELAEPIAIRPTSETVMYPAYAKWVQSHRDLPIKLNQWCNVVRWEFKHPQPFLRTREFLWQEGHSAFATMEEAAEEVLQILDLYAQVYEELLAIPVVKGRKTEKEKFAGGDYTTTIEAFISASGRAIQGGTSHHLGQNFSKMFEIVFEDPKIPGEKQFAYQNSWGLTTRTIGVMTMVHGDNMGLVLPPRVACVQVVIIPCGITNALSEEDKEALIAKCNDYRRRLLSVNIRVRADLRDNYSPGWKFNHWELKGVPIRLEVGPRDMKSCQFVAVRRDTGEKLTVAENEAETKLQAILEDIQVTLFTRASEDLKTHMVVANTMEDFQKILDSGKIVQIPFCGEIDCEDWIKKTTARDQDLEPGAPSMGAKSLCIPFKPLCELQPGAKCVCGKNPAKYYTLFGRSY

PfProRS [2] = biological target: T1, PfProRS; test: biochemical; type: biochemical; details: read-out: Pf ProRS IC50
[3] = system: Plasmodium falciparum strain 3D7; test: Plasmodium falciparum growth inhibition, SYBR green fluorescence; type: cell-based; details: 3D7, growth inhibition, read-out: Pf (3D7) EC50
HsHEPG2 = test: mammalian cell line selectivity; type: cell-based; details: Homo sapiens; data not shown
Description: (§1) […]. In addition to its activity and selectivity, it has good physicochemical and DMPK properties. […].

experimental CHI-logD = type: physicochemical; details: HPLC retention (chromatographic hydrophobicity index, CHI)
Description: as §1

[4] = kinetic aqueous solubility, laser nephelometry; type: physicochemical; details: MilliQ water with 1.0% DMSO, kinetic from dmso stock
Procedure: (§2) 485nm (Plouffe et al., 2008).
(§3) described (Vedadi et al., 2006).
(§4) Orange Dye (Life Technologies S-6650).
(§5) In vitro Cell Assay Data Analysis
(§6) (Patterson et al., 2013). […] An
(§7) Triplicate aliquots were transferred to a flat
(§8) Intrinsic Clearance (CLi) experiments
(§9) Test compound (0.5 µM) was
(§10) phosphate buffer, pH 7.4).
(§11) The rate of intrinsic clearance (CLi)
(§12) 52.5mg protein per g liver.
(§13) Ion homeostasis in the malaria parasite

[5] = intrinsic clearance in liver microsomes; type: in vitro ADME
Procedure: as §2, §3, §4, §5, §6, §7, §8, §9, §10, §11, §12, §13

PfProRS [6] = biological target: T1, PfProRS; test: ATP consumption assay with proline or ATP varied (competition); type: biochemical
[7] = system: isolated 3D7 trophozoites (pHi); test: pH assay, BCECF-loaded isolated trophozoites; details: TCMDC-124506 5 μM; KAE609 50 nM
[8] = read-out: Percentage inhibition Pf ProRS

T1 sequence (Q8I5R7 7-746): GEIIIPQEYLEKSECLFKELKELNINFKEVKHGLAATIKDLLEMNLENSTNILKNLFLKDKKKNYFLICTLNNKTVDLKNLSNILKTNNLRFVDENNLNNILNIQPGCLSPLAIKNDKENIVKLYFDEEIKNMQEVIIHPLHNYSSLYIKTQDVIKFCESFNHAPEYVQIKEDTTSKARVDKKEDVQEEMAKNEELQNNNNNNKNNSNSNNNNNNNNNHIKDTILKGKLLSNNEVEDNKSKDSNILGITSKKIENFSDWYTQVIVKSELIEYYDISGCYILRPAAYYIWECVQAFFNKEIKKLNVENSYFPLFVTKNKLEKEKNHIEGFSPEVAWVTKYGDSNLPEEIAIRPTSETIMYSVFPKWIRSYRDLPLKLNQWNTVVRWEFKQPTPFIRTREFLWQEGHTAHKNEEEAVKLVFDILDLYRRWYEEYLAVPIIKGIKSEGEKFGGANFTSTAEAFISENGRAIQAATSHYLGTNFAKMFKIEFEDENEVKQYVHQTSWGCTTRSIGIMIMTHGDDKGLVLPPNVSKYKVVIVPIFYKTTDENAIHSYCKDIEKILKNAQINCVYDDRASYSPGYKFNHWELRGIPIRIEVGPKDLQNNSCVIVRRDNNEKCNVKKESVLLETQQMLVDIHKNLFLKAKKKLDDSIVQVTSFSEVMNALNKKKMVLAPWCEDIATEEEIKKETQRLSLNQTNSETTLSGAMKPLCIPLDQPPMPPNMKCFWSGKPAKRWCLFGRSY

## Cn1nc(C(F)(F)F)c(-c2ccc(F)cc2)c1NC(=O)Nc1ccc(F)cc1 [TCMDC-124506]
PfProRS [1]; 75 nM ProRS, 60 μM proline, 6 μM ATP, 400 μg/mL yeast tRNA, 2 h 37 °C, read-out: PfProRS IC50
  IC50: 74 µM and 73 µM
PfProRS [1]; [8]
  inhibition at 2.5 µM: -0.36%
  inhibition at 4.9 µM: -2.4%
  inhibition at 9.8 µM: 3.73%
  inhibition at 19.5 µM: 10.8%
  inhibition at 39 µM: 30.9%
  inhibition at 78 µM: 55.8%
  inhibition at 156 µM: 79.5%
  inhibition at 313 µM: 80.4%
  inhibition at 625 µM: 96.2%
  inhibition at 1250 µM: 97%
HsProRS
  IC50: > 700 µM
HsProRS; at 2.5 μM, read-out: Percentage inhibition Hs ProRS
  inhibition at 2.5 µM: 0.3%
HsProRS; at 4.9 μM, read-out: Percentage inhibition Hs ProRS
  inhibition at 4.9 µM: 0.28%
HsProRS; at 9.8 μM, read-out: Percentage inhibition Hs ProRS
  inhibition at 9.8 µM: 0.01%
HsProRS; at 19.5 μM, read-out: Percentage inhibition Hs ProRS
  inhibition at 19.5 µM: -0.08%
HsProRS; at 39 μM, read-out: Percentage inhibition Hs ProRS
  inhibition at 39 µM: 0.26%
HsProRS; at 78 μM, read-out: Percentage inhibition Hs ProRS
  inhibition at 78 µM: 0.84%
HsProRS; at 156 μM, read-out: Percentage inhibition Hs ProRS
  inhibition at 156 µM: 0.82%
HsProRS; at 313 μM, read-out: Percentage inhibition Hs ProRS
  inhibition at 313 µM: 0.26%
HsProRS; at 625 μM, read-out: Percentage inhibition Hs ProRS
  inhibition at 625 µM: 0.12%
HsProRS; at 1250 μM, read-out: Percentage inhibition Hs ProRS
  inhibition at 1250 µM: 0.04%
HsProRS; up to the limit of solubility (>1 mM)
  inhibitory activity for HsProRS: < 40%
PfProRS [2]
  IC50: 5 µM
[3]
  EC50: 0.6 µM
HsHEPG2
  EC50: > 50 µM
Experimental CHI-logD
  chromatographic logD: 2.9
[4]
  solubility kinetic: > 250 µM
[5]
  mouse microsomal clearance (Cli): 1.6 mL/min/g
PfProRS [6]
  mode of inhibition: competitive allosteric inhibitor
PfProRS [6]; IC50 of TCMDC-124506 as a function of proline, Pro=30 M
  IC50: 88 µM
PfProRS [6]; IC50 of TCMDC-124506 as a function of proline, Pro=60
  IC50: 110 µM
PfProRS [6]; IC50 of TCMDC-124506 as a function of proline, Pro=120
  IC50: 128 µM
PfProRS [6]; IC50 of TCMDC-124506 as a function of proline, Pro=240
  IC50: 151 µM
PfProRS [6]; Ki (Cheng-Prusoff, competition with ATP), intercept of IC50 vs [ATP]
  Ki: 51 ± 1.6 µM
PfProRS [6]; Ki (Cheng-Prusoff, competition with proline), intercept of IC50 vs [Proline]
  Ki: 80 ± 4.9 µM
PfProRS [6]; TCMDC-124506 IC50 as a function of ATP, ATP=3 M
  IC50: 74.4 µM
PfProRS [6]; TCMDC-124506 IC50 as a function of ATP, ATP=6
  IC50: 103 µM
PfProRS [6]; TCMDC-124506 IC50 as a function of ATP, ATP=12
  IC50: 145 µM
[7]
  effect on acidification after concanamycin A (100 nM): a reduction in the degree of acidification
  effect on parasite cytosolic pH (pHi): caused an increase in pHi
